# Assay results reported in article PMC8148064 (Acta Pharmaceutica Sinica. B, 2020).
# Molecular target: adenylyl cyclase-associated protein 1 (CAP1) (Homo sapiens, UniProt Q01518)
# Experiment: ITC with purified CAP1
# Type: binding
# Sequence of adenylyl cyclase-associated protein 1 (CAP1) (Q01518 2-475): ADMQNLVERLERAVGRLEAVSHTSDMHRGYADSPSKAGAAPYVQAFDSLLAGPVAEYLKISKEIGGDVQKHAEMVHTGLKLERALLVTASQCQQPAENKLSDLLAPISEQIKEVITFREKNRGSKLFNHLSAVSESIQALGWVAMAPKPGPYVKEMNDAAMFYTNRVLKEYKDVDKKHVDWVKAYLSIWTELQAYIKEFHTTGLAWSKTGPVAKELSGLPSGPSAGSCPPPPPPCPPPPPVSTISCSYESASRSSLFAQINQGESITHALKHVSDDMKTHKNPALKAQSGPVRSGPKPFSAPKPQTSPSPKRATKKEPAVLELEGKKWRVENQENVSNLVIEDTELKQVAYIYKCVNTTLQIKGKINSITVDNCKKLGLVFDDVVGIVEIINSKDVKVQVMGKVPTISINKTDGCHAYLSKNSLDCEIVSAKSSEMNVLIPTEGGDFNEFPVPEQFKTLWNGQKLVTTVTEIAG
smiles,measurement,value
CC1=C(O)C(=O)C=C2C1=CC=C1[C@@]2(C)CC[C@@]2(C)[C@@H]3C[C@](C)(C(=O)O)CC[C@]3(C)CC[C@]12C [celastrol],Kd,110 nM
